Series [1] relates to SH-SY5Y cells. The series can be described thus: Hoechst 33342/propidium iodide double staining (apoptosis and necrosis). Type of series: cell-based. As to conditions: 72 h of incubation. From the text:
(§1) After assessing the cytotoxicity of tiamulin and its mixtures with CBD, cell death was examined using the Hoechst 33342/propidium iodide (PI) double staining test (Figure 6). The intensity of the blue color and the presence of fragmented, blue-stained cellular components indicated apoptotic cell death after Hoechst 33342 staining. Necrotic cell death was identified by red fluorescence after PI staining. […] Mixtures of tiamulin and CBD caused a decrease in both apoptotic and necrotic cell death.
(§2) The analysis of type and level of cellular death in the control and tested cultures was evaluated using fluorochrome staining, Hoechst 33342 (Sigma, St. Louis, MO, USA) and propidium iodide (Sigma, St. Louis, MO, USA) mixed for apoptosis and necrosis evaluation. Using an Axiaert 200 M fluorescence micrscope (Zeiss, Obercochem, Germany), dead cells were analyzed morphologically. Cells with pink fluorescent nuclei were considered necrotic, whereas those with blue fluorescent nuclei (fragmented and/or with condensed chromatin) were considered apoptotic.

In the next series the test system is HEK-293 cells. The series is described as above. It is filed as cell-based. The following applies: HEK-293, 72 h of incubation.
Source text: as §1, §2

The test system of series [2] is HepG2 cells. The series is described as above. As to conditions: HepG2, 72 h of incubation. It is filed as cell-based.
Source text: as §1, §2

In series [3] the test system is HepG2 cells. The series can be described thus: NRU assay (lysosomal activity). It is filed as cell-based. The following applies: Homo sapiens, HepG2, 72 h, read-out: inhibited concentration (IC50), NRU. The method, then: The cytotoxic potential of the veterinary drug and its mixtures with cannabidiol at two non-toxic concentrations: 1.56 and 3.15 µg/mL, on the human SH-SY5Y, HepG2 and HEK 293 cell lines was assessed by decreased viability of the cells within five biochemical endpoints: mitochondrial activity and lysosomal activity (MTT assays, reducing the tetrazolium dye MTT 3-(4,5-dimethylthiazol-2-yl)-2,5-diphenyltetrazolium bromide and neutral red uptake (NRU) assays), total protein content (TPC assay), cellular membrane integrity (leakage lactate dehydrogenase (LDH) assay) and DNA synthesis (the bromodeoxyuridine/5-bromo-2′-deoxyuridine incorporation into the DNA cells (BrdU) assay) after 72 h exposition. […]
The human neuroblastoma (SH-SY5H), hepatoma (HepG2) and kidney cells (HEK 293) cells were purchased from the American Type Culture Collection: ATCCCRL-2266,ATCC HB-8065 and ATCC CRL-1573, respectively. […] Cytotoxicity was assessed after 72 h of exposure of the cells to the compounds. […]
This method is based on staining living cells with neutral red, which readily diffuses through the plasma membrane and accumulates in lysosomes. […] After 10 min of shaking, the absorbance of the dissolved NR was measured using a Synergy 2 Multi-Mode Microplate Reader (BioTek® Instruments Inc., Winooski, VT, USA) at 540 nm using a blank as a reference. […]

For a further series, the system named is HepG2 and HEK-293 cells. Set-up: method as in PMID 39241564, PMID 37709940. The following applies: 10 h of exposure, cited from earlier work.
The subject of series [4] is SH-SY5Y cells. The series can be described thus: BrdU assay (DNA synthesis). It is filed as cell-based, human. The following applies: 72 h. The method, then: (§3) The cytotoxic potential of the veterinary drug and its mixtures with cannabidiol at two non-toxic concentrations: 1.56 and 3.15 µg/mL, on the human SH-SY5Y, HepG2 and HEK 293 cell lines was assessed by decreased viability of the cells within five biochemical endpoints: mitochondrial activity and lysosomal activity (MTT assays, reducing the tetrazolium dye MTT 3-(4,5-dimethylthiazol-2-yl)-2,5-diphenyltetrazolium bromide and neutral red uptake (NRU) assays), total protein content (TPC assay), cellular membrane integrity (leakage lactate dehydrogenase (LDH) assay) and DNA synthesis (the bromodeoxyuridine/5-bromo-2′-deoxyuridine incorporation into the DNA cells (BrdU) assay) after 72 h exposition. Data obtained from the measurement of the optical density in these assays were transformed to percentages in relation to the negative control group (0.1% DMSO in medium), considered to be 100% for the MTT, NRU, TPC and BrdU assays and 0% for the LDH assay. 1% Trition-X 100 solution in medium was used as the positive controls, (Figure 3).
(§4) The human neuroblastoma (SH-SY5H), hepatoma (HepG2) and kidney cells (HEK 293) cells were purchased from the American Type Culture Collection: ATCCCRL-2266,ATCC HB-8065 and ATCC CRL-1573, respectively. These cells were cultured in Minimum Essential Medium Eagle (MEME) (ATCC). The media were supplemented with 10% FBS, 1% L-glutamine (and 1% antibiotic solution (P4333 Sigma). The cells were maintained in 75 cm^2 cell culture flasks (NUNC) in a humidified incubator at 37 °C in an atmosphere of 5% CO2. The medium was refreshed every two or three days, and the cells were subcultured by 0.25% trypsin–0.02% EDTA after reaching 70–80% confluence. Single cell suspensions were prepared and adjusted to a density of 2 × 10^5 cell/mL^−1 (SH-SY5H), 1 × 10^5 cell/mL^−1 (HepG2) and 1 × 10^5 cell/mL^−1 (HEK-293). The cell suspension was transferred to 96-well plates (100 µL/well) or Lab-Tek chamber slides (8 wells) (Nunc) for staining and incubated for 24 h before the exposure to the studied compounds. Stock solutions of tiamulin fumarate and cannabidiol were prepared in DMSO and diluted with culture medium to obtain a concentration range from 1.56 to 200 µg/mL and 1.56 or 3.156 µg/mL, respectively. The selection of tiamulin concentrations was based on data from the literature and pilot studies. The final concentration of DMSO was 0.1% in the medium. The same final concentrations of the solvent and the 1% Trition-X 100 solution were used as the negative and positive controls, respectively. A total of 500 µM hydrogen peroxide (H2O2) in was used as the positive control in the DCFH assay. […] As a negative control, cultured cells were grown in the absence of studied compounds. Each concentration was tested in six replicates in three independent experiments. Cytotoxicity was assessed after 72 h of exposure of the cells to the compounds. The medium was not changed during the incubation time.
(§5) Cell proliferation was evaluated by BrdU assay using a Cell Proliferation ELISA, BrdU (colorimetric) kit (Roche, Switzerland), according to manufacturer’s instructions. Briefly, BrdU was incorporated in the place of thymidine into the DNA of cells under division. This BrdU was detected by an anti-BrdU antibody conjugated with peroxidase and the reaction product of the enzyme with the given substrate was quantified by measuring its absorbance. The absorbance (A) was measured at 370 nm and 492 nm in a Synergy 2 Multi-Mode Microplate Reader (BioTek® Instruments Inc., Winooski, VT, USA), using a blank as a reference.
(§6) This study was performed in three independent experiments. The obtained results are presented as mean values ± SD (standard deviation). The assessment of the cytotoxicity data used a one-way analysis of variance (ANOVA) followed by Dunnett’s post hoc test, which was applied to determine significance relative to the negative control. […]
(Incorporation of labelled thymidine or its analogues reports DNA synthesis.)

In series [5] the test system is HepG2 cells. The series can be described thus: BrdU assay (DNA synthesis). Type of series: cell-based, human. The following applies: HepG2, 72 h. The method, then: as §3, §4, §5, §6
Another series relates to HEK 293 cells. The series can be described thus: BrdU assay (DNA synthesis). Type of series: cell-based, human. The method, then: as §3, §4, §5, §6
[6] abbreviates: Homo sapiens, read-out: inhibited concentration (IC50), BrdU.

Consider one molecule from article PMC11676896, “Protective Action of Cannabidiol on Tiamulin Toxicity in Humans—In Vitro Study” (International Journal of Molecular Sciences, 2024).

“And” between values parts separate entries of the source, which are not always exact repeats. Identical values can stand only once. Counter-ions that a name gives are not always drawn. Like-named read-outs stand apart in the source and are kept apart here.

`C=C[C@]1(C)C[C@@H](OC(=O)CSCCN(CC)CC)[C@]2(C)[C@H](C)CC[C@]3(CCC(=O)[C@H]32)[C@@H](C)[C@@H]1O` [T, tiamulin fumarate]: the “apoptotic and necrotic cell death” value in the series on SH-SY5Y cells [1] was “slight increase in apoptotic and necrotic cells”; in the series with HEK-293 cells, “significant apoptotic and necrotic profiles”; with HepG2 cells [2], “significant apoptotic and necrotic profiles”. The IC50 was 34.7 ± 1 µg/mL in the series on HepG2 cells [3]; 9.9 ± 1.1 µg/mL in the series with SH-SY5Y cells [4] (setting [6]); 13.9 ± 0.8 µg/mL in the series on HepG2 cells [5] (setting [6]); 14.6 ± 1.3 µg/mL in the series with HEK 293 cells (Homo sapiens, HEK293, 72 h, read-out: inhibited concentration (IC50), BrdU). Moreover, the “concentrations with cytotoxic effects” value with HepG2 and HEK-293 cells (converted from µM) was 49.4 µg/mL and 98.8 µg/mL; in the series on HepG2 and HEK-293 cells, 100 µM and 200 µM. Besides, the “tiamulin concentration that inhibited DNA synthesis” value was determined as 6.25 µg/mL in the series on SH-SY5Y cells [4]; 25 µg/mL in the series with HepG2 cells [5]; 12.5 µg/mL with HEK 293 cells (HEK-293, 72 h).
